Common to all, as to assay type: cell-based
In assay [1] the test system is rabbit synovial cell line (HIG-82). Kind of assay: Inflammatory cytokine and MMP gene expression induction by LPA in rabbit synovial cell line. As to the method: EDG2 is a GPCR having lysophosphatidic acid (LPA) as a ligand thereof. For LPA, four receptors, including EDG2, have been reported (EDG2, EDG4, EDG7 and GPR23). To analyze the tissue distributions of these four LPA receptors, an expression quantitation analysis by quantitative real-time PCR in various human tissues was performed. On 500 ng of total RNA of each of various human tissues (Human Total RNA Master Panel, Clontech), reverse transcription was performed using Multiscribe reverse transcriptase (Applied biosystems) and a random hexamer, whereby a cDNA was obtained. Quantitation of the LPA receptor genes was performed using QuantiTect STBR Green PCR (Qiagen) on the ABI PRISM 7700 sequence detection system (Applied biosystems) as directed in the documentation attached. The number of copies of each gene was calculated using a working curve. The amount of each gene was standardized by being divided by the number of copies of the G3PDH gene. A Toyobo product was used as the primer for the G3PDH gene. […] In these organs, the amount of the EDG2 gene expressed was about 20 to 100 times as high as other LPA receptor genes; this gene is a dominant LPA receptor (FIG. 2). The EDG2 gene was also found to be expressed at moderate levels in the adrenal, cerebellum, lung, placenta, prostate, testis, thyroid, trachea, and uterus (FIG. 2). In these tissues, EDG2 was not always a dominant LPA receptor.
The inflammatory cytokine expression induction reaction of LPA in a rabbit synovial cell line was analyzed. The method used is described below. A rabbit synovial cell line (HIG-82) was purchased from ATCC. The HIG-82 was cultured using Ham's F-12 medium (Invitrogen) containing 10% fetal bovine serum (FBS) and antibiotics (100 U/ml penicillin G and 100 μg/ml streptomycin). The HIG-82 was seeded to a 24-well plate at a ratio of 1×10^5 cells/well, and cultured until they became confluent. Twelve hours before performing LPA stimulation, the medium was replaced with Ham's F-12 medium containing 0.1% fatty acid free bovine serum albumin (Sigma). In the time-related change analysis, 12 hours after the medium replacement, the cells were stimulated with 10 μM LPA; 0, 2, 4, 8, 12 and 24 hours later, total RNA was extracted using ISOGEN (Nippon Gene), and the amounts expressed of the TNFA and IL1B genes, which are inflammatory cytokine genes, and of the MMP1, MMP3 and MMP13 genes, which are MMP genes, were quantified by a method in accordance with Example 10 (n=4). In the dose dependency test, 12 hours after the medium replacement, the cells were stimulated with 0, 0.1, 1 and 10 μM LPA; 2 hours later, total RNA was extracted using ISOGEN (Nippon Gene), and the amounts expressed of the TNFA and IL1B genes, which are inflammatory cytokine genes, were quantified by the same method as with the time-related change test (n=4). As a result of the time-related change test of inflammatory cytokine genes with LPA stimulation, the amounts expressed of the TNFA and IL1B genes rose transiently, with peaks reached 2 hours later (FIGS. 9a and b). The amounts expressed of the MMP1, MMP3 and MMP13 genes, which are MMP genes, rose transiently, with peaks reached 4, 4 and 8 hours later, respectively. As a result of the dose dependency test, it was shown that LPA raised the expression of inflammatory cytokine genes dose-dependently. The amount expressed of the IL1B gene nearly reached a plateau at 1 μM, whereas the amount expressed of the TNFA gene rose dose-dependently up to 10 μM. The results above are well similar to the results for HFLS-OA shown in Example 17, showing that in HIG-82 cells as well, the expression of inflammatory cytokine genes is induced with LPA stimulation, and the expression of MMPs is induced paracrinely.

For assay [2], the system named is Normal human knee articular cartilage cells (NHAC-kn). Kind of assay: Inflammatory cytokine gene expression induction by LPA in human articular cartilage cells. Conditions: 10 μM LPA, n=4. As to the method:
EDG2 is a GPCR having lysophosphatidic acid (LPA) as a ligand thereof. For LPA, four receptors, including EDG2, have been reported (EDG2, EDG4, EDG7 and GPR23). To analyze the tissue distributions of these four LPA receptors, an expression quantitation analysis by quantitative real-time PCR in various human tissues was performed. On 500 ng of total RNA of each of various human tissues (Human Total RNA Master Panel, Clontech), reverse transcription was performed using Multiscribe reverse transcriptase (Applied biosystems) and a random hexamer, whereby a cDNA was obtained. Quantitation of the LPA receptor genes was performed using QuantiTect STBR Green PCR (Qiagen) on the ABI PRISM 7700 sequence detection system (Applied biosystems) as directed in the documentation attached. The number of copies of each gene was calculated using a working curve. […]
The inflammatory cytokine expression induction reaction of LPA, which is a ligand of EDG2, in human articular cartilage cells was analyzed. […] Twelve hours after the medium replacement, the cells were stimulated with 10 μM LPA; 0, 2, 4, 8, 12 and 24 hours later, total RNA was extracted using ISOGEN (Nippon Gene), and the amounts expressed of TNFA and IL1B, which are inflammatory cytokine genes, were quantified by a method in accordance with Example 10. […]

In another assay the target is EDG2 (Homo sapiens, UniProt Q92633). Kind of assay: Intracellular Ca2+ concentration (FLIPR tetra) in McA-RH7777 cells stably expressing EDG2. Also on record: Dainippon Pharmaceutical Co., Ltd. (cells); host or cells: McA-RH7777. Conditions: 0.03 to 10 μM LPA. The protocol: A forcible expression vector comprising an ORF sequence of human EDG2 [hEDG2-pcDNA3.1(+)] was purchased from UMR cDNA Resource Center. This plasmid was introduced into McA-RH7777 (Dainippon Pharmaceutical Co., Ltd.) using Lipofectamine LTX (Invitrogen), and the cells were cultured in a medium containing Geneticin for 14 to 20 days to acquire cells that stably express EDG2.
EDG2, sequence (Q92633 whole entry): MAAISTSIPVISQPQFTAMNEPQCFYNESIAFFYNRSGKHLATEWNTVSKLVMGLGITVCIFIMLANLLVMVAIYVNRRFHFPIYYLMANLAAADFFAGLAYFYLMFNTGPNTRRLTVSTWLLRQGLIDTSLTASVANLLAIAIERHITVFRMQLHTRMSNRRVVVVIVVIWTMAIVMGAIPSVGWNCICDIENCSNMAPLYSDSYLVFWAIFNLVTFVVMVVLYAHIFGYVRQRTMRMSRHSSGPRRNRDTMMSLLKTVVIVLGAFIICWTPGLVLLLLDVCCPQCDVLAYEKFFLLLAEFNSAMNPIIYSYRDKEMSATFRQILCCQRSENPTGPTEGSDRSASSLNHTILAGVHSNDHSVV
Next, an evaluation was made using FLIPR tetra (Molecular Devices) to confirm that stimulation with LPA raised intracellular Ca concentrations via the EDG2 expressed. That is, these cells were seeded to a 384-well plate, 0.03 to 10 μM LPA (Sigma) was added to each well, and it was confirmed that rises in intracellular Ca^2+ concentration occurred. LPA dose-dependently.

Regarding `CCCCCCCC/C=C\CCCCCCCC(=O)OC[C@@H](O)COP(=O)(O)O` [LPA, 1-Oleoyl-sn-Glycero-3-Phosphate], the “rise of expression of inflammatory cytokine genes (TNFA, IL1B)” value in assay [1] (0, 0.1, 1 and 10 μM LPA, 2 hours, n=4) was “dose-dependently”. In addition, in assay [1] (10 μM LPA, transient rise, n=4), the “time of peak of IL1B gene expression” value stood at 2 h, the “time of peak of MMP1 gene expression” value turned out to be 4 h, the “time of peak of MMP3 gene expression” value was found to be 4 h and the “time of peak of MMP13 gene expression” value was determined as 8 h. Besides, the “time of peak of TNFA gene expression” value in assay [1] (10 μM LPA, transient rise, n=4) came out at 2 h. In assay [1] (dose dependency test, 2 hours), the “LPA concentration at which IL1B gene expression nearly reached a plateau” value amounted to 1 µM and the “LPA concentration up to which TNFA gene expression rose dose-dependently” value is given as “up to 10 μM”. Moreover, the IL1B gene expression entry in assay [2] (0-24 hours) was “no expression raising reaction was observed”. Moreover, the “rise in amount expressed of the TNFA gene” value in assay [2] (transiently, 2 hours after addition) was “about 2 folds”. The “rises in intracellular Ca2+ concentration” value at EDG2 is given as “dose-dependently”.

Source of the values: patent US20100239501A1, “GENE SENSITIVE TO BONE/JOINT DISEASE AND USE THEREOF” (RIKEN, priority 2007, published 2010).
